Assay results taken from article PMC6667408, “Discovery and preclinical characterization of [^18F]PI-2620, a next-generation tau PET tracer for the assessment of tau pathology in Alzheimer’s disease and other tauopathies” (European Journal of Nuclear Medicine and Molecular Imaging, 2019).

Assays:
MAO-B = target: T1, MAO-B (Homo sapiens, UniProt P27338); assay: radioligand displacement of [3H]deprenyl, filtration; type: binding; details: [3H]deprenyl radioligand, PBS, 0.1% BSA, 2% DMSO
T1 construct: gene MAOB; native enzyme in human non-demented control (NDC) brain homogenate
T1 sequence (P27338 2-520): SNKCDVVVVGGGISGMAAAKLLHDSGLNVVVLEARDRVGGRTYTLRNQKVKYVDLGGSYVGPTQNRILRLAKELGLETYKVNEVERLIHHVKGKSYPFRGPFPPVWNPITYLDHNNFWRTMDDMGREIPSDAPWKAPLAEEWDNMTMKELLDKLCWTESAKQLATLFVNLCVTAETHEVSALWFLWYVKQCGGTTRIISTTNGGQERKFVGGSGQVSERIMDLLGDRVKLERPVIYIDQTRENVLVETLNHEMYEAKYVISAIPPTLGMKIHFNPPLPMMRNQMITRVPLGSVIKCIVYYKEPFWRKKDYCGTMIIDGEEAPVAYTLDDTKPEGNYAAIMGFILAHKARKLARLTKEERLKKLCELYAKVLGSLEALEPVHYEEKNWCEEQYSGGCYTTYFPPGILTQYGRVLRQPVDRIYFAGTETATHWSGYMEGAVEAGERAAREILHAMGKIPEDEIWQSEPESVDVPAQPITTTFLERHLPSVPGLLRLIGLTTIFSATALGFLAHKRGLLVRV

MAO-A = target: T2, MAO-A (Mus musculus, UniProt Q64133); assay: radioligand displacement of […]FEH, filtration; type: binding; details: [18F]fluoroethylharmine radioligand, PBS, 0.1% BSA, 2% DMSO
T2 construct: gene Maoa; native enzyme in mouse brain homogenate, 20 ug/well
T2 sequence (Q64133 1-526): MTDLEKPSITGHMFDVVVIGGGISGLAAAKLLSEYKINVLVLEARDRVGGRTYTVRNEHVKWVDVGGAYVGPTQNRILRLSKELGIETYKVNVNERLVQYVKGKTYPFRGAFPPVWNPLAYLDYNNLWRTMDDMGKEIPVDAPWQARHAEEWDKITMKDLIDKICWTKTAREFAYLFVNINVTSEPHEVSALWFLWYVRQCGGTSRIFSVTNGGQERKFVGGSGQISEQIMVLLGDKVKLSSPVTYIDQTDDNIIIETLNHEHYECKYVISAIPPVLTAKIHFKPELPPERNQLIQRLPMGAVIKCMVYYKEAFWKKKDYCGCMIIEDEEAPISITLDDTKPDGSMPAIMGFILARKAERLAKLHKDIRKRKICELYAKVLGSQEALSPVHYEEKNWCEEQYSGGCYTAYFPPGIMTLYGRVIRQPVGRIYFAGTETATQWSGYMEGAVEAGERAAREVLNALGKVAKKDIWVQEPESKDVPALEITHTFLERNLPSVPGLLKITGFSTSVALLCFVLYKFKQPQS

Row | [^18F]FEH MAO-A pIC50^a (MAO-A) | [^3H]Deprenyl MAO-B pIC50^c (MAO-B) | Structure (SMILES) | pIC50 (MAO-B)
1 | – | – | CNc1ccc(-c2ccc3cc(OCC(O)CF)ccc3n2)cn1 (stereo not drawn) [THK5151, reference compound] | 7.4
2 | 7.7 | 6.8 | Fc1ccc(-c2ccc3c(c2)[nH]c2ccncc23)cn1 [compound 1, AV-1451] | –
3 | 6.3 | – | Fc1ccc(-c2ccc3c(n2)[nH]c2ccncc23)cn1 [compound 3, RO6958948] | –
4 | 6.1 | – | Fc1cnccc1-c1ccc2c(n1)[nH]c1ccncc12 [compound 8, 8] | –
5 | 6.6 | 6.5 | Fc1cccc(-c2ccc3c(n2)[nH]c2ccncc23)n1 [compound 9, 9] | –
6 | 7.1 | 6.5 | Fc1ccc(-c2ccc3c(n2)[nH]c2ccncc23)nc1 [compound 10, 10] | –
